Reference: paper PMC5267425, “Identification of small molecule modulators of HIV-1 Tat and Rev protein accumulation” (Retrovirology, 2017)

Assays:
Type in all cases: cell-based
[1] = XTT cell metabolism/viability assay, HeLa; conditions: human, HeLa rtTA HIV∆Mls cells
Description: (§1) Effects of compound treatment on cellular metabolism was assessed by an XTT-based in vitro toxicology assay kit (Sigma-Aldrich) or Trypan blue exclusion (Life Technologies) as proxy for degree of cytotoxicity and expressed relative to DMSO control treatment. For measurement of cell viability using XTT, culture media was removed after 24, 72, and 96 h of compound treatment, replaced with 20% XTT solution and incubated at 37 °C in a 5% CO2 humidified incubator for 2–6 h, and relative cell viability was measured in compound treated cells relative to DMSO-treated cells. Cell viability measurements in CEM-GXR cells are described above.

[2] = Trypan blue exclusion, HeLa; conditions: human, HeLa rtTA HIV∆Mls cells
Description: as §1

in vitro = conditions: human
Description: To assess the activity of compounds against HIV-1 strains having resistance to various ART drugs, assays were performed in the context of CEM-GXR cells. These cells express CD4, CXCR4, and coreceptor, CCR5 as well as an exogenous Tat-driven LTR-GFP expression cassette. Cultures were infected with different HIV-1 strains of interest, differing on their subtypes (A and B), and resistance to three major drug targets (reverse transcriptase, protease, and integrase). The culture contains serial dilutions of the molecule in the final concentrations from 0.156 to 5 μM for 833; 725 nM to 46.87 μM for 791; 1.95 to 62.5 μM for 892. Antiviral activity was evaluated in the assay by measuring inhibition of HIV-1 spread in a coculture of CEM-GXR cells containing 1% of HIV-1 infected (GFP positive) cells using flow cytometric analysis (GuavaSoft 2.2 software, Guava HT8, Millipore). To estimate the viable cell counts, the gate in a flow cytometer (Guava HT8) was set to cover 95% of the freshly passaged uninfected CEM-GXR cell or using ViaCount™. The same parameter was employed to gate viable cells in the inhibition assay and the number of gated cells was obtained by GuavaSoft 2.2 software. For assays using ViaCount™, sample acquisition and data analysis were performed with the selection of EasyFit analysis feature using the ViaCount™ software module.
Additional file 1: Figure S1. […] Cell viability was measured by an XTT assay. […] Cells were analyzed after 24 h incubation with the compounds at the indicated concentrations ranging between 0–47 μM (791), 0–5 μM (833), or 0–62.5 μM (892). Results are expressed as the percentage (%) of viable cells relative to DMSO treatment ±SEM of two independent experiments performed in triplicate. […] Images are cropped to show a representative field of view. b The dose range of the compounds which inhibit HIV-1 GagGFP expression in HeLa rtTA HIVGagGFP C7 cells was measured by mean fluorescence intensity and expressed relative to fluorescence intensity in DMSO-treated samples (N ≥ 3, *p ≤ 0.05, **p ≤ 0.01, and ***p ≤ 0.001). […]

Cc1cc(NCc2cccnc2)n2ncc(-c3ccc(Cl)cc3)c2n1 [Compound 791, 3-(4-chlorophenyl)-5-methyl-N-(3-pyridinylmethyl)pyrazolo[1,5-a]pyrimidin-7-amine]
CC50 [1]: > 40 µM | CC50 [2]: > 40 µM | CC50 at 24 h (in vitro): 24 µM

O=C(NC(=S)NNC(=O)c1ccccc1O)c1ccc(-c2ccccc2)cc1 [Compound 833, N-([2-(2-hydroxybenzoyl)hydrazino]carbonothioyl}-4-biphenylcarboxamide]
CC50 [1]: ≥ 40 µM | CC50 [2]: > 10 µM | CC50 at 24 h (in vitro): > 5 µM

COc1ccc(C=NNC(=O)c2ccccc2O)cc1O [Compound 892, 2-hydroxy-N′-(3-hydroxy-4-methoxybenzylidene)benzohydrazide]
CC50 [1]: > 40 µM | CC50 [2]: > 40 µM | CC50 at 24 h (in vitro): 60 µM
